Where a SMILES comes first, the peptide text is derived from it.
What was measured:
HLA A*3001 = HLA A*3001 (Homo sapiens, UniProt P04439, D140H/D185E/E176W/F33S/G80R/H175R/K168Q/R138E/R41S); assay: biochemical; type: binding
HLA B*1503 = HLA B*1503 (Homo sapiens, UniProt P01889, A329T/A93T/A95T/C349S/D201E/D98Y/E187L/E204Q/K202T/N87E/Q94N/R155S/R180L/S121R/S35A/V306I/V36M/Y140S/Y91S); assay: biochemical; type: binding

Sequence of HLA A*3001 (P04439 25-365 limits assumed, stated change not applied): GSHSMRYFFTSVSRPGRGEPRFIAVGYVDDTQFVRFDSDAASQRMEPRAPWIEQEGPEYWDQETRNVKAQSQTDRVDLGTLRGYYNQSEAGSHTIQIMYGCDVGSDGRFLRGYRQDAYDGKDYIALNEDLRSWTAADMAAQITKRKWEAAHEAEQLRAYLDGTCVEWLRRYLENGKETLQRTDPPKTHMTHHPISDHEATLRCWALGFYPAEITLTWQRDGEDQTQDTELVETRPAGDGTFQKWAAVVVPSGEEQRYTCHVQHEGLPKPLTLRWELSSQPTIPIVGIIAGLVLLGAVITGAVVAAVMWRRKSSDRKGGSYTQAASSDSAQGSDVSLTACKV

| SMILES | IC50 (HLA A*3001) [nM] | IC50 (HLA B*1503) [nM] |
| --- | --- | --- |
| CC[C@H](C)[C@H](N)C(=O)N[C@H](C(=O)N[C@@H](CCCCN)C(=O)N[C@H](C(=O)N[C@@H](CC(N)=O)C(=O)N[C@H](C(=O)N[C@@H](Cc1c[nH]cn1)C(=O)N[C@@H](CC(C)C)C(=O)N[C@@H](C)C(=O)O)[C@@H](C)O)[C@@H](C)CC)[C@@H](C)O [3102.0001] (H-ITKINTHLA-OH) | 15 |  |
| CC[C@H](C)[C@H](N)C(=O)N[C@H](C(=O)N[C@@H](CCCCN)C(=O)N[C@@H](CO)C(=O)N1CCC[C@H]1C(=O)N[C@@H](Cc1ccc(O)cc1)C(=O)N[C@@H](CCSC)C(=O)N[C@@H](Cc1ccccc1)C(=O)N[C@@H](C)C(=O)O)[C@@H](C)CC [3102.0003] (H-IIKSPYMFA-OH) | 6.4 |  |
| CC[C@H](C)[C@H](NC(=O)[C@H](CC(C)C)NC(=O)[C@@H](NC(=O)[C@@H](NC(=O)[C@H](CCCNC(=N)N)NC(=O)[C@H](Cc1ccccc1)NC(=O)[C@@H](N)CCCNC(=N)N)[C@@H](C)O)C(C)C)C(=O)N[C@@H](CO)C(=O)N[C@@H](CCCCN)C(=O)O [3102.0004] (H-RFRTVLISK-OH) | 4.6 |  |
| CC(C)C[C@H](NC(=O)[C@H](CC(N)=O)NC(=O)[C@H](CC(C)C)NC(=O)[C@H](CCCNC(=N)N)NC(=O)[C@H](CCCNC(=N)N)NC(=O)[C@H](CO)NC(=O)[C@H](CCCCN)NC(=O)[C@H](CO)NC(=O)[C@@H](N)CCCCN)C(=O)O [3102.0008] (H-KSKSRRLNL-OH) | 13 |  |
| CC(C)C[C@H](NC(=O)[C@H](CC(N)=O)NC(=O)[C@H](CC(C)C)NC(=O)[C@H](CCCNC(=N)N)NC(=O)[C@H](CCCNC(=N)N)NC(=O)[C@H](CO)NC(=O)[C@@H](N)CCCCN)C(=O)N[C@@H](Cc1ccccc1)C(=O)N[C@@H](CO)C(=O)O [3102.0009] (H-KSRRLNLFS-OH) | 3.3 |  |
| CC[C@H](C)[C@H](NC(=O)[C@H](CCSC)NC(=O)[C@H](CCCCN)NC(=O)[C@@H](NC(=O)[C@@H](N)CC(C)C)C(C)C)C(=O)N[C@@H](CC(N)=O)C(=O)N[C@@H](Cc1c[nH]cn1)C(=O)N[C@@H](CC(C)C)C(=O)N[C@@H](CCCCN)C(=O)O [3102.0010] (H-LVKMINHLK-OH) | 42 |  |
| CSCC[C@H](N)C(=O)N[C@H](C(=O)N[C@@H](CCCNC(=N)N)C(=O)N[C@@H](CC(C)C)C(=O)N[C@H](C(=O)N[C@H](C(=O)N[C@@H](CCC(N)=O)C(=O)NCC(=O)N[C@@H](CC(C)C)C(=O)O)[C@@H](C)O)[C@@H](C)O)C(C)C [3102.0012] (H-MVRLTTQGL-OH) | 8.3 |  |
| CC[C@H](C)[C@H](NC(=O)[C@@H](N)CCCCN)C(=O)N[C@@H](CCCCN)C(=O)N[C@@H](CO)C(=O)N1CCC[C@H]1C(=O)N[C@H](C(=O)N[C@@H](Cc1ccc(O)cc1)C(=O)N[C@@H](Cc1ccc(O)cc1)C(=O)N[C@@H](CCCCN)C(=O)O)[C@@H](C)CC [3102.0014] (H-KIKSPIYYK-OH) | 0.93 |  |
| CC(C)[C@H](NC(=O)[C@@H](N)CCCCN)C(=O)N[C@@H](Cc1ccccc1)C(=O)N[C@H](C(=O)N1CCC[C@H]1C(=O)N[C@@H](C)C(=O)N1CCC[C@H]1C(=O)N[C@@H](Cc1ccccc1)C(=O)NCC(=O)O)C(C)C [3102.0015] (H-KVFVPAPFG-OH) | 6.6 |  |
| CC[C@H](C)[C@H](NC(=O)[C@H](CCCCN)NC(=O)[C@@H](NC(=O)[C@@H](N)Cc1c[nH]cn1)[C@@H](C)O)C(=O)N[C@@H](CC(=O)O)C(=O)N[C@@H](CO)C(=O)N[C@@H](CCSC)C(=O)N[C@@H](Cc1ccccc1)C(=O)N[C@@H](CC(C)C)C(=O)O [3102.0016] (H-HTKIDSMFL-OH) | 1.5 |  |
| CC(C)C[C@H](NC(=O)[C@H](CO)NC(=O)[C@@H]1CCCN1C(=O)[C@@H]1CCCN1C(=O)[C@H](CO)NC(=O)[C@@H](NC(=O)[C@@H](N)CCCCN)C(C)C)C(=O)NCC(=O)N[C@@H](CCCCN)C(=O)O [3102.0017] (H-KVSPPSLGK-OH) | 1.1 |  |
| CC[C@H](C)[C@H](NC(=O)[C@H](C)NC(=O)[C@H](CC(C)C)NC(=O)[C@H](Cc1c[nH]cn1)NC(=O)[C@H](CCC(N)=O)NC(=O)[C@@H](N)Cc1c[nH]cn1)C(=O)N[C@@H](CCSC)C(=O)N[C@@H](Cc1ccccc1)C(=O)N[C@@H](CCCCN)C(=O)O [3102.0020] (H-HQHLAIMFK-OH) | 5 |  |
| CSCC[C@H](NC(=O)[C@H](CO)NC(=O)[C@H](CCCNC(=N)N)NC(=O)[C@@H]1CCCN1C(=O)[C@H](Cc1ccccc1)NC(=O)[C@H](CCCCN)NC(=O)[C@H](CO)NC(=O)[C@@H](N)CCCCN)C(=O)N[C@@H](CC(C)C)C(=O)O [3102.0022] (H-KSKFPRSML-OH) | 31 |  |
| CC(C)C[C@H](NC(=O)[C@H](CO)NC(=O)[C@H](CO)NC(=O)[C@H](CCC(=O)O)NC(=O)[C@H](CCCCN)NC(=O)[C@H](CCCCN)NC(=O)[C@H](Cc1ccccc1)NC(=O)[C@@H](N)CCCNC(=N)N)C(=O)N[C@@H](C)C(=O)O [3102.0023] (H-RFKKESSLA-OH) | 0.31 |  |
| CSCC[C@H](N)C(=O)N[C@@H](CC(C)C)C(=O)N[C@@H](CCCNC(=N)N)C(=O)N[C@H](C(=O)N[C@H](C(=O)N[C@@H](Cc1ccc(O)cc1)C(=O)N[C@@H](CS)C(=O)N[C@@H](CC(N)=O)C(=O)N[C@@H](CCCCN)C(=O)O)C(C)C)[C@@H](C)O [3102.0024] (H-MLRTVYCNK-OH) | 0.26 |  |
| CC[C@H](C)[C@H](N)C(=O)N[C@@H](CCSC)C(=O)N[C@H](C(=O)N[C@@H](CO)C(=O)N[C@@H](CCC(=O)O)C(=O)N[C@@H](Cc1c[nH]cn1)C(=O)N[C@@H](Cc1ccccc1)C(=O)N[C@@H](CO)C(=O)N[C@@H](CC(C)C)C(=O)O)C(C)C [3102.1318] (H-IMVSEHFSL-OH) |  | 5.5 |
| CC(C)[C@H](NC(=O)[C@H](CC(N)=O)NC(=O)[C@@H](N)CO)C(=O)N[C@H](C(=O)N[C@@H](CS)C(=O)NCC(=O)N[C@H](C(=O)N[C@H](C(=O)N[C@@H](Cc1ccccc1)C(=O)O)[C@@H](C)O)[C@@H](C)O)C(C)C [3102.1319] (H-SNVVCGTTF-OH) |  | 25 |
| CC[C@H](C)[C@H](NC(=O)[C@H](CC(N)=O)NC(=O)[C@@H](NC(=O)[C@H](C)NC(=O)[C@H](CS)NC(=O)[C@H](CCCNC(=N)N)NC(=O)[C@@H](NC(=O)[C@@H](N)CO)[C@@H](C)CC)[C@@H](C)O)C(=O)N[C@@H](Cc1ccccc1)C(=O)O [3102.1321] (H-SIRCATNIF-OH) |  | 20 |
| C[C@H](NC(=O)[C@H](Cc1c[nH]c2ccccc12)NC(=O)[C@H](CO)NC(=O)CNC(=O)[C@@H](N)CCCNC(=N)N)C(=O)N[C@H](C(=O)N[C@@H](CO)C(=O)N[C@@H](CO)C(=O)N[C@@H](Cc1ccccc1)C(=O)O)[C@@H](C)O [3102.1323] (H-RGSWATSSF-OH) |  | 11 |
| CC[C@H](C)[C@H](NC(=O)[C@H](Cc1ccccc1)NC(=O)[C@H](CCC(=O)O)NC(=O)[C@H](Cc1ccccc1)NC(=O)[C@H](C)NC(=O)[C@H](C)N)C(=O)N[C@@H](CC(N)=O)C(=O)N[C@@H](CO)C(=O)N[C@@H](CC(C)C)C(=O)O [3102.1324] (H-AAFEFINSL-OH) |  | 4.6 |
| CC[C@H](C)[C@H](N)C(=O)N[C@@H](CCCCN)C(=O)N[C@H](C(=O)N[C@@H](CCSC)C(=O)N[C@@H](CCSC)C(=O)N[C@H](C(=O)N[C@@H](CC(N)=O)C(=O)N1CCC[C@H]1C(=O)N[C@@H](Cc1ccccc1)C(=O)O)[C@@H](C)CC)[C@@H](C)O [3102.1325] (H-IKTMMINPF-OH) |  | 0.19 |
| CC[C@H](C)[C@H](N)C(=O)N[C@@H](CCC(N)=O)C(=O)N[C@@H](Cc1ccc(O)cc1)C(=O)N[C@@H](CC(=O)O)C(=O)N[C@@H](CCCNC(=N)N)C(=O)N[C@@H](CCCNC(=N)N)C(=O)N[C@@H](CO)C(=O)N[C@@H](Cc1ccccc1)C(=O)N[C@@H](Cc1ccccc1)C(=O)O [3102.1327] (H-IQYDRRSFF-OH) |  | 0.15 |
| CC(C)C[C@H](NC(=O)[C@H](CO)NC(=O)[C@@H]1CCCN1C(=O)[C@H](CO)NC(=O)[C@H](Cc1ccccc1)NC(=O)[C@H](CO)NC(=O)[C@@H](NC(=O)[C@H](CO)NC(=O)[C@@H](N)Cc1ccccc1)C(C)C)C(=O)O [3102.1332] (H-FSVSFSPSL-OH) |  | 22 |
| CSCC[C@H](NC(=O)[C@@H](N)CCCCN)C(=O)N[C@H](C(=O)N[C@@H](Cc1ccc(O)cc1)C(=O)N[C@@H](C)C(=O)N[C@@H](CC(C)C)C(=O)N[C@@H](CC(C)C)C(=O)N[C@@H](CC(C)C)C(=O)N[C@@H](Cc1ccc(O)cc1)C(=O)O)C(C)C [3102.1336] (H-KMVYALLLY-OH) |  | 2.7 |
| CC(C)C[C@H](NC(=O)[C@H](C)NC(=O)[C@H](CO)NC(=O)[C@@H](N)Cc1ccccc1)C(=O)N1CCC[C@H]1C(=O)N[C@H](C(=O)N[C@@H](CC(N)=O)C(=O)N[C@@H](CCC(=O)O)C(=O)N[C@@H](Cc1ccccc1)C(=O)O)[C@@H](C)O [3102.1337] (H-FSALPTNEF-OH) |  | 0.13 |
| CC[C@H](C)[C@H](NC(=O)[C@H](CO)NC(=O)[C@H](CC(=O)O)NC(=O)[C@H](CO)NC(=O)[C@H](CC(N)=O)NC(=O)[C@H](CCC(N)=O)NC(=O)[C@H](CCC(N)=O)NC(=O)[C@@H](N)CO)C(=O)N[C@@H](Cc1ccccc1)C(=O)O [3102.1340] (H-SQQNSDSIF-OH) |  | 1.9 |
| CC[C@H](C)[C@H](NC(=O)[C@H](CC(N)=O)NC(=O)[C@@H](NC(=O)[C@H](Cc1ccccc1)NC(=O)[C@H](CO)NC(=O)[C@@H](NC(=O)[C@H](CO)NC(=O)[C@@H](N)Cc1c[nH]c2ccccc12)[C@@H](C)O)[C@@H](C)O)C(=O)N[C@@H](Cc1ccccc1)C(=O)O [3102.1342] (H-WSTSFTNIF-OH) |  | 5.9 |
| CC[C@H](C)[C@H](NC(=O)[C@H](CC(C)C)NC(=O)[C@H](CCC(=O)O)NC(=O)[C@@H](NC(=O)[C@@H](NC(=O)[C@H](CCC(N)=O)NC(=O)[C@@H](N)CO)[C@@H](C)O)[C@@H](C)CC)C(=O)N[C@@H](C)C(=O)N[C@@H](Cc1ccccc1)C(=O)O [3102.1343] (H-SQTIELIAF-OH) |  | 0.21 |
| CC[C@H](C)[C@H](NC(=O)[C@H](CC(N)=O)NC(=O)[C@H](CCSC)NC(=O)[C@@H](NC(=O)[C@H](CCSC)NC(=O)[C@@H](N)CC(C)C)[C@@H](C)O)C(=O)N[C@H](C(=O)N[C@@H](CC(N)=O)C(=O)N[C@@H](Cc1ccccc1)C(=O)O)C(C)C [3102.1344] (H-LMTMNIVNF-OH) |  | 17 |

From PMC2248166, “Quantitative peptide binding motifs for 19 human and mouse MHC class I molecules derived using positional scanning combinatorial peptide libraries” (Immunome Research, 2008)
